# Source: US5112810A, “Method for treating multiple sclerosis” (Mitsui Pharmaceuticals, Inc., priority 1981, dated 1992)
# Where a SMILES comes first, the peptide text is derived from it. [ ]: non-standard residue; d: D form. pGlu = O=C1CC[C@@H](C(=O)O)N1
# Tested on: male Hartley guinea pig
# Test: Toxicity (Experiment 3)
# Type: in vivo
# Conditions: FTS 100 mg/kg
# Procedure: Toxicity was studied by treating a male Hartley guinea pig with FTS at a dose of 100 mg/kg and observing the animal for one-week. This animal was still alive at the end of one-week observation period.
smiles,measurement,value
"C[C@H](NC(=O)[C@@H]1CCC(=O)N1)C(=O)N[C@@H](CCCCN)C(=O)N[C@@H](CO)C(=O)N[C@@H](CCC(N)=O)C(=O)NCC(=O)NCC(=O)N[C@@H](CO)C(=O)N[C@@H](CC(N)=O)C(=O)O [FTS, p-Glu-Ala-Lys-Ser-Gln-Gly-Gly-Ser-Asn-Oh] ([pGlu]AKSQGGSN-OH)",Toxicity: survival at the end of one-week observation,still alive
